Several values for one entry are separate records, joined by “and”; a condition that tells them apart may be missing. Equal entries are not always repeated. Toxic doses and inconclusive results are not listed.
Test system: CD2F1 mice, L1210 leukemia ip, survival T/C
Test: NCI In Vivo Anticancer Drug Screen. Data for tumor model L1210 Leukemia (intraperitoneal) in CD2F1 (CDF1) mice
Conditions: higher = longer survival
In short: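 Transplantable tumor in mice; compound-treated vs vehicle-treated groups. Read-out = treated/control ratio of the measured endpoint.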

With `O=C1c2c(O)ccc(O)c2C(=O)c2c(NCCNCCO)ccc(NCCNCCO)c21` the T/C (endpoint: mean survival time, dose: 0.13 mg/kg/injection, schedule: Q01DX005 (iv), vehicle: acid diluted with saline) was 104 % of control, the T/C (endpoint: mean survival time, dose: 0.13 mg/kg/injection, schedule: Q01DX005 (iv), vehicle: clinical formulation) was 109 % of control and the T/C (endpoint: mean survival time, dose: 0.13 mg/kg/injection, schedule: Q01DX009 (ip), vehicle: clinical formulation) was 276 % of control and 165 % of control. The T/C (endpoint: mean survival time, dose: 0.19 mg/kg/injection, schedule: Q01DX009 (ip), vehicle: saline) was 161 % of control and 195 % of control, the T/C (endpoint: mean survival time, dose: 0.25 mg/kg/injection, schedule: Q01DX005 (iv), vehicle: acid diluted with saline) was 110 % of control and the T/C (endpoint: mean survival time, dose: 0.25 mg/kg/injection, schedule: Q01DX005 (iv), vehicle: saline) was 117 % of control. For the same compound, the T/C (endpoint: mean survival time, dose: 0.25 mg/kg/injection, schedule: Q01DX009 (ip), vehicle: acid diluted with saline) was 170 % of control and 196 % of control, the T/C (endpoint: mean survival time, dose: 0.25 mg/kg/injection, schedule: Q01DX009 (ip), vehicle: clinical formulation) was 404 % of control and 223 % of control and the T/C (endpoint: mean survival time, dose: 0.38 mg/kg/injection, schedule: Q01DX009 (ip), vehicle: saline) was 182 % of control and 193 % of control. For the same compound, the T/C (endpoint: mean survival time, dose: 0.5 mg/kg/injection, schedule: Q01DX005 (iv), vehicle: acid diluted with saline) was 153 % of control, the T/C (endpoint: mean survival time, dose: 0.5 mg/kg/injection, schedule: Q01DX005 (iv), vehicle: clinical formulation) was 163 % of control and 159 % of control and the T/C (endpoint: mean survival time, dose: 0.5 mg/kg/injection, schedule: Q01DX005 (iv), vehicle: saline) was 152 % of control. For the same compound, the T/C (endpoint: mean survival time, dose: 0.5 mg/kg/injection, schedule: Q01DX005 (oral), vehicle: acid diluted with saline) was 102 % of control and 107 % of control, the T/C (endpoint: mean survival time, dose: 0.5 mg/kg/injection, schedule: Q01DX009 (ip), vehicle: acid diluted with saline) was 150 % of control and 171 % of control and 328 % of control and the T/C (endpoint: mean survival time, dose: 0.5 mg/kg/injection, schedule: Q01DX009 (ip), vehicle: clinical formulation) was 228 % of control. For the same compound, the T/C (endpoint: mean survival time, dose: 1.0 mg/kg/injection, schedule: Q01DX005 (ip), vehicle: acid diluted with saline) was 163 % of control, the T/C (endpoint: mean survival time, dose: 1.0 mg/kg/injection, schedule: Q01DX005 (iv), vehicle: acid diluted with saline) was 157 % of control and 170 % of control and the T/C (endpoint: mean survival time, dose: 1.0 mg/kg/injection, schedule: Q01DX005 (iv), vehicle: clinical formulation) was 324 % of control. For the same compound, the T/C (endpoint: mean survival time, dose: 1.0 mg/kg/injection, schedule: Q01DX005 (iv), vehicle: saline) was 180 % of control, the T/C (endpoint: mean survival time, dose: 1.0 mg/kg/injection, schedule: Q01DX005 (oral), vehicle: acid diluted with saline) was 101 % of control and the T/C (endpoint: mean survival time, dose: 1.0 mg/kg/injection, schedule: Q01DX009 (ip), vehicle: acid diluted with saline) was 168 % of control and 274 % of control and 307 % of control. The T/C (endpoint: mean survival time, dose: 1.0 mg/kg/injection, schedule: Q01DX009 (ip), vehicle: clinical formulation) was 494 % of control, the T/C (endpoint: mean survival time, dose: 1.0 mg/kg/injection, schedule: Q04DX003 (iv), vehicle: acid diluted with saline) was 151 % of control and the T/C (endpoint: mean survival time, dose: 2.0 mg/kg/injection, schedule: Q01DX005 (ip), vehicle: acid diluted with saline) was 198 % of control. The T/C (endpoint: mean survival time, dose: 2.0 mg/kg/injection, schedule: Q01DX005 (iv), vehicle: acid diluted with saline) was 168 % of control and 409 % of control, the T/C (endpoint: mean survival time, dose: 2.0 mg/kg/injection, schedule: Q01DX005 (iv), vehicle: clinical formulation) was 171 % of control and the T/C (endpoint: mean survival time, dose: 2.0 mg/kg/injection, schedule: Q01DX005 (iv), vehicle: saline) was 173 % of control. For the same compound, the T/C (endpoint: mean survival time, dose: 2.0 mg/kg/injection, schedule: Q01DX005 (oral), vehicle: acid diluted with saline) was 102 % of control and 109 % of control, the T/C (endpoint: mean survival time, dose: 2.0 mg/kg/injection, schedule: Q01DX009 (ip), vehicle: acid diluted with saline) was 246 % of control and 354 % of control and the T/C (endpoint: mean survival time, dose: 2.0 mg/kg/injection, schedule: Q01DX009 (ip), vehicle: clinical formulation) was 190 % of control. For the same compound, the T/C (endpoint: mean survival time, dose: 2.0 mg/kg/injection, schedule: Q04DX003 (ip), vehicle: acid diluted with saline) was 167 % of control and 223 % of control, the T/C (endpoint: mean survival time, dose: 2.0 mg/kg/injection, schedule: Q04DX003 (iv), vehicle: acid diluted with saline) was 189 % of control and the T/C (endpoint: mean survival time, dose: 3.89 mg/kg/injection, schedule: Q01DX001 (ip), vehicle: acid diluted with saline) was 190 % of control and 221 % of control. For the same compound, the T/C (endpoint: mean survival time, dose: 3.89 mg/kg/injection, schedule: Q01DX001 (iv), vehicle: acid diluted with saline) was 163 % of control and 173 % of control, the T/C (endpoint: mean survival time, dose: 4.0 mg/kg/injection, schedule: Q01DX005 (ip), vehicle: acid diluted with saline) was 256 % of control and the T/C (endpoint: mean survival time, dose: 4.0 mg/kg/injection, schedule: Q01DX005 (iv), vehicle: acid diluted with saline) was 90 % of control. The T/C (endpoint: mean survival time, dose: 4.0 mg/kg/injection, schedule: Q01DX005 (oral), vehicle: acid diluted with saline) was 102 % of control and 107 % of control, the T/C (endpoint: mean survival time, dose: 4.0 mg/kg/injection, schedule: Q01DX009 (ip), vehicle: acid diluted with saline) was 118 % of control and 101 % of control and 102 % of control and the T/C (endpoint: mean survival time, dose: 4.0 mg/kg/injection, schedule: Q04DX003 (ip), vehicle: acid diluted with saline) was 211 % of control and 230 % of control. For the same compound, the T/C (endpoint: mean survival time, dose: 4.0 mg/kg/injection, schedule: Q04DX003 (iv), vehicle: acid diluted with saline) was 260 % of control, the T/C (endpoint: mean survival time, dose: 6.48 mg/kg/injection, schedule: Q01DX001 (ip), vehicle: acid diluted with saline) was 248 % of control and 328 % of control and the T/C (endpoint: mean survival time, dose: 6.48 mg/kg/injection, schedule: Q01DX001 (iv), vehicle: acid diluted with saline) was 180 % of control and 181 % of control. For the same compound, the T/C (endpoint: mean survival time, dose: 8.0 mg/kg/injection, schedule: Q01DX005 (ip), vehicle: acid diluted with saline) was 98 % of control, the T/C (endpoint: mean survival time, dose: 8.0 mg/kg/injection, schedule: Q01DX005 (oral), vehicle: acid diluted with saline) was 100 % of control and 107 % of control and the T/C (endpoint: mean survival time, dose: 8.0 mg/kg/injection, schedule: Q04DX003 (ip), vehicle: acid diluted with saline) was 320 % of control. For the same compound, the T/C (endpoint: mean survival time, dose: 8.0 mg/kg/injection, schedule: Q04DX003 (iv), vehicle: acid diluted with saline) was 163 % of control, the T/C (endpoint: mean survival time, dose: 10.8 mg/kg/injection, schedule: Q01DX001 (ip), vehicle: acid diluted with saline) was 207 % of control and 309 % of control and the T/C (endpoint: mean survival time, dose: 10.8 mg/kg/injection, schedule: Q01DX001 (iv), vehicle: acid diluted with saline) was 233 % of control and 261 % of control. The T/C (endpoint: mean survival time, dose: 16.0 mg/kg/injection, schedule: Q01DX005 (oral), vehicle: acid diluted with saline) was 93 % of control and 109 % of control, the T/C (endpoint: mean survival time, dose: 16.0 mg/kg/injection, schedule: Q04DX003 (iv), vehicle: acid diluted with saline) was 110 % of control and the T/C (endpoint: mean survival time, dose: 18.0 mg/kg/injection, schedule: Q01DX001 (ip), vehicle: acid diluted with saline) was 191 % of control and 344 % of control. For the same compound, the T/C (endpoint: mean survival time, dose: 18.0 mg/kg/injection, schedule: Q01DX001 (iv), vehicle: acid diluted with saline) was 308 % of control and 344 % of control, the T/C (endpoint: mean survival time, dose: 30.0 mg/kg/injection, schedule: Q01DX001 (ip), vehicle: acid diluted with saline) was 289 % of control and the T/C (endpoint: mean survival time, dose: 30.0 mg/kg/injection, schedule: Q01DX001 (iv), vehicle: acid diluted with saline) was 156 % of control. For the same compound, the T/C (endpoint: median survival time, dose: 0.25 mg/kg/injection, schedule: Q01DX009 (ip), vehicle: acid diluted with saline) was 172 % of control, the T/C (endpoint: median survival time, dose: 0.5 mg/kg/injection, schedule: Q01DX009 (ip), vehicle: acid diluted with saline) was 170 % of control and 197 % of control and the T/C (endpoint: median survival time, dose: 1.0 mg/kg/injection, schedule: Q01DX009 (ip), vehicle: acid diluted with saline) was 179 % of control and 182 % of control. For the same compound, the T/C (endpoint: median survival time, dose: 1.08 mg/kg/injection, schedule: Q04DX003 (ip), vehicle: saline) was 151 % of control, the T/C (endpoint: median survival time, dose: 1.8 mg/kg/injection, schedule: Q04DX003 (ip), vehicle: saline) was 175 % of control and the T/C (endpoint: median survival time, dose: 2.0 mg/kg/injection, schedule: Q01DX009 (ip), vehicle: acid diluted with saline) was 219 % of control and 370 % of control. For the same compound, the T/C (endpoint: median survival time, dose: 2.16 mg/kg/injection, schedule: Q01DX001 (iv), vehicle: saline) was 170 % of control, the T/C (endpoint: median survival time, dose: 3.6 mg/kg/injection, schedule: Q01DX001 (iv), vehicle: saline) was 170 % of control and the T/C (endpoint: median survival time, dose: 5.0 mg/kg/injection, schedule: Q04DX003 (ip), vehicle: saline) was 208 % of control. For the same compound, the T/C (endpoint: median survival time, dose: 6.0 mg/kg/injection, schedule: Q01DX001 (iv), vehicle: saline) was 196 % of control.
In the case of `CC/C(=N\[N+](C)(C)C)c1ccccc1`, the T/C (endpoint: mean survival time, dose: 18.8 mg/kg/injection, schedule: Q01DX009 (ip), vehicle: saline) is reported as 96 % of control and the T/C (endpoint: mean survival time, dose: 37.5 mg/kg/injection, schedule: Q01DX009 (ip), vehicle: saline) is reported as 91 % of control.
For `CC1(C)C2C3C=CC(C3)C2S1(=O)=O` (centres undefined), the T/C (endpoint: mean survival time, dose: 1.25 mg/kg/injection, schedule: Q01DX009 (ip), vehicle: saline with Tween-80) was 100 % of control, the T/C (endpoint: mean survival time, dose: 1.25 mg/kg/injection, schedule: Q04DX003 (ip), vehicle: saline with Tween-80) was 110 % of control and the T/C (endpoint: mean survival time, dose: 2.5 mg/kg/injection, schedule: Q01DX001 (ip), vehicle: saline) was 100 % of control. The T/C (endpoint: mean survival time, dose: 2.5 mg/kg/injection, schedule: Q01DX009 (ip), vehicle: saline with Tween-80) was 101 % of control, the T/C (endpoint: mean survival time, dose: 2.5 mg/kg/injection, schedule: Q04DX003 (ip), vehicle: saline with Tween-80) was 100 % of control and the T/C (endpoint: mean survival time, dose: 5.0 mg/kg/injection, schedule: Q01DX001 (ip), vehicle: saline) was 100 % of control. For the same compound, the T/C (endpoint: mean survival time, dose: 5.0 mg/kg/injection, schedule: Q01DX009 (ip), vehicle: saline with Tween-80) was 101 % of control and the T/C (endpoint: mean survival time, dose: 5.0 mg/kg/injection, schedule: Q04DX003 (ip), vehicle: saline with Tween-80) was 107 % of control.
